Results: US6667309B2, “Cyclobutene derivatives useful as antagonists of the motilin receptor” (Ortho-McNeil Pharmaceutical, Inc., priority 2000, dated 2003)

Target: T1, motilin receptors located on the colon of mature rabbits (Oryctolagus cuniculus, UniProt G1T803)
T1 construct: The muscle tissues were homogenized in 10 volumes of buffer; from tissue; host or cells: rabbit colon smooth muscle, crude membrane homogenate
Experiment: Competition with radiolabeled motilin (porcine) binding, rabbit colon membranes
Design: species or system New Zealand rabbits
Settings: I125 motilin (porcine), rabbit colon membrane
Procedure: The compounds of the invention were tested for their ability to compete with radiolabeled motilin (porcine) for the motilin receptors located on the colon of mature rabbits. The colon from mature New Zealand rabbits was removed, dissected free from the mucosa and serosa layers, and diced into small pieces. The muscle tissues were homogenized in 10 volumes of buffer (50 mM Tris-Cl, 10 mM MgCl2, 0.1 mg/mL bactracin, and 0.25 mM Peflabloc, pH 7.5) in a Polytron (29,000 rpm, 4×15 seconds). The homogenate was centrifuged at 1000×g for 15 min. and the supernatant discarded. The pellet was washed twice before being suspended in homogenizing buffer. This crude homogenate was then passed first through a 19 gauge needle then a 23 gauge needle to further suspend the material and stored at −80° C. […] The pellet was counted in the gamma counter to determine the percentage of […] motilin and thereby the percent inhibition of the test compound.
% inhibition was determined for some compounds by standard techniques: […]

T1 sequence (G1T803 1-400): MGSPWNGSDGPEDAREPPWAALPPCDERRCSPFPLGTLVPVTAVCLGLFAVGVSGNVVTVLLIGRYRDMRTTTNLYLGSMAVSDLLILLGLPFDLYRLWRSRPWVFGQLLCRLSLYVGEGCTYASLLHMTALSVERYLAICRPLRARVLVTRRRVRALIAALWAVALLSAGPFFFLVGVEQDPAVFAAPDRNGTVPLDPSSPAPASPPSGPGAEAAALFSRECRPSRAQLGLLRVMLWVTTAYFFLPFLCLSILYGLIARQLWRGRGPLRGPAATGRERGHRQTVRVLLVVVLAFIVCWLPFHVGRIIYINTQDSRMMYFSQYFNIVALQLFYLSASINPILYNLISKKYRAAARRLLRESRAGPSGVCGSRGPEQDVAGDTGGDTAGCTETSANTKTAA

SMILES	% inhibition (@ 10,000 nM test compound) [%]	% inhibition (@ 1,000 nM test compound) [%]
O=C(c1ccc(Br)cc1)N(CC1=CC(Cc2ccccc2)(NC(=O)C(Cl)(Cl)Cl)C1)c1cccc(OCCN2CCOCC2)c1 (centres unmarked) [example 7, 3-Benzyl-3-trichloroacetamido-1-[N-(4-bromobenzoyl)]-N-[(3-(2-morpholinoethoxy)phenyl)amino]methylcyclobutene]	47	–
O=C(c1ccc(F)c(F)c1)N(CC1=CC(Cc2ccccc2)(NC(=O)C(Cl)(Cl)Cl)C1)c1cccc(OCCN2CCOCC2)c1 (centres unmarked) [example 6, 3-Benzyl-3-trichloroacetamido-1-[N-(3,4-difluorobenzoyl)]-N-[(3-(2-morpholinoethoxy)phenyl)amino]methylcyclobutene]	–	14
